Assay [1] relates to lymphocytic leukemia P388. The assay is described as follows: Lymphocytic Leukemia P388 Test. Format: in vivo, DBA/2 mice. The protocol:
Lymphocytic Leukemia P388 Test
The animals used were DBA/2 mice all of one sex, weighing a minimum of 17 g and all within a 3 g weight range. There were 5 or 6 animals per test group. The tumor transplant was by intraperitoneal injection of 0.1 ml of dilute ascitic fluid containing 10^6 cells of lymphocytic leukemia P388. The test compounds were administered intraperitoneally on days 1, 5 and 9 (relative to tumor inoculation) at various doses. The animals were weighed and survivors were recorded on a regular basis for 30 days. The median survival time and the ratio of survival time for treated (T)/control (C) animals were calculated. The positive control compound was 1,4-dihydroxy-5,8-bis--[ [2-(2-hydroxyethylamino)ethyl ]amino]anthraquinone, dihydrochloride (U.S. Patent 4,197,249) given at the indicated doses by injection.

The test system of the next assay is melanotic melanoma B16. The assay is described as follows: Melanotic Melanoma B16 Test. It counts as in vivo, C57BC/6 mice. The method, then:
The animals used were C57BC/6 mice, all of the same sex, weighing a minimum of 17 g and all within a 3 g weight range. There were normally 10 animals per test group. A 1.0 g portion of melanotic melanoma B16 tumor was homogenized in 10 ml of cold balanced salt solution and a 0.5 ml aliquot of the homogenate was implanted intraperitoneally into each of the test mice. The test compounds were administered intraperitoneally on days one through nine (relative to tumor inoculation) at various doses. The animals were weighed and survivors recorded on a regular basis for 60 days. The median survival time and the ratio of survival time for treated (T)/control (C) animals were calculated. The positive control compound was 1,4-dihydroxy-5,8-bis[[2-(2-hydroxyethylamino)-ethyl]amino]anthraquinone, dihydrochloride (U.S. Patent 4,197,249) given at the indicated doses by injection.

Setting [2] is: Dose 3 mg/kg intraperitoneally on days 1, 5 and 9, dihydrochloride, 3 mg/kg.
The mark [3] stands for this setting: Dose 12 mg/kg intraperitoneally on days 1, 5 and 9, dihydrochloride, 12 mg/kg.
Where [4] appears, read: Dose 50 mg/kg intraperitoneally on days 1, 5 and 9, dihydrochloride, 50 mg/kg.
Setting [5] is: Dose 0.8 mg/kg intraperitoneally on days one through nine.
The mark [6] stands for this setting: Dose 3 mg/kg intraperitoneally on days one through nine.
[7] abbreviates: Dose 12 mg/kg intraperitoneally on days one through nine.
[8] abbreviates: Dose 50 mg/kg intraperitoneally on days 1, 5 and 9.
[9] abbreviates: Dose 200 mg/kg intraperitoneally on days 1, 5 and 9.
Setting [10] is: Dose 25 mg/kg intraperitoneally on days one through nine.
Setting [11] is: Dose 50 mg/kg intraperitoneally on days one through nine.
The mark [12] stands for this setting: Dose 100 mg/kg intraperitoneally on days one through nine.
Setting [13] is: Dose 0.025 mg/kg intraperitoneally on days 1, 5 and 9, dihydrochloride, 0.025 mg/kg.
The mark [14] stands for this setting: Dose 0.1 mg/kg intraperitoneally on days 1, 5 and 9, dihydrochloride, 0.1 mg/kg.
Setting [15] is: Dose 0.4 mg/kg intraperitoneally on days 1, 5 and 9, dihydrochloride, 0.4 mg/kg.
The mark [16] stands for this setting: Dose 1.6 mg/kg intraperitoneally on days 1, 5 and 9, dihydrochloride, 1.6 mg/kg.
Setting [17] is: Dose 0.025 mg/kg by injection, dihydrochloride, 0.025 mg/kg.
The mark [18] stands for this setting: Dose 0.1 mg/kg by injection, dihydrochloride, 0.1 mg/kg.
Where [19] appears, read: Dose 0.2 mg/kg intraperitoneally on days one through nine.
Setting [20] is: Dose 0.4 mg/kg by injection, dihydrochloride, 0.4 mg/kg.
Setting [21] is: Dose 1.6 mg/kg by injection, dihydrochloride, 1.6 mg/kg.
[22] abbreviates: Dose 3 mg/kg intraperitoneally on days 1, 5 and 9.
Where [23] appears, read: Dose 12 mg/kg intraperitoneally on days 1, 5 and 9.
The mark [24] stands for this setting: Dose 0.025 mg/kg intraperitoneally on days 1, 5 and 9.
Setting [25] is: Dose 0.1 mg/kg intraperitoneally on days 1, 5 and 9.
The mark [26] stands for this setting: Dose 0.4 mg/kg intraperitoneally on days 1, 5 and 9.
Setting [27] is: Dose 1.6 mg/kg intraperitoneally on days 1, 5 and 9.
Where [28] appears, read: Dose 6.4 mg/kg intraperitoneally on days 1, 5 and 9.
Where [29] appears, read: Dose 0.05 mg/kg intraperitoneally on days one through nine.
The mark [30] stands for this setting: Dose 3 mg/kg intraperitoneally on days 1, 5 and 9, 3 mg/kg.
Where [31] appears, read: Dose 12 mg/kg intraperitoneally on days 1, 5 and 9, 12 mg/kg.
Where [32] appears, read: Dose 50 mg/kg intraperitoneally on days 1, 5 and 9, 50 mg/kg.

Where “and” joins values, the source holds several entries; their conditions need not be identical. Identical values can stand only once. Counter-ions that a name gives are not always drawn.

With `CN(C)CCCNC(=S)N(CCO)CCNc1ccc(NCCN(CCO)C(=S)NCCCN(C)C)c2c1C(=O)c1c(O)ccc(O)c1C2=O` [N,N"-[(9,10-Dihydro-5,8-dihydroxy-9,10-dioxo-1,4-anthracenediyl)bis(imino-2,1-ethanediyl)]bis[N'-[3-(dimethylamino)propyl]-N-(2-hydroxyethyl)]thiourea, dihydrochloride], the “Median Survival” value was 15 days in assay [1] (setting [2]); 19.5 days in assay [1] (setting [3]); 22.5 days in assay [1] (setting [4]); 24.5 days in the assay on melanotic melanoma B16 (setting [5]); 33.5 days in the assay on melanotic melanoma B16 (setting [6]); greater than 60 days in the assay on melanotic melanoma B16 (setting [7]). Besides, the “T/C x 100 (%)” value in assay [1] (setting [2]) was 136%; in assay [1] (setting [3]), 177%; in assay [1] (setting [4]), 205%; in the assay on melanotic melanoma B16 (setting [5]) it was 114%; in the assay with melanotic melanoma B16 (setting [6]), 156%; in the assay on melanotic melanoma B16 (setting [7]) it was greater than 279%.

Turning to `CC(=O)C(=O)NCCNc1ccc(NCCNC(=O)C(C)=O)c2c1C(=O)c1c(O)ccc(O)c1C2=O` [N,N'-[9,10-Dihydro-5,8-dihydroxy-9,10-dioxo-1,4-anthracenediyl)bis(imino-2,1-ethanediyl)]bis-[2-oxopropanamide]], the “Median Survival” value in assay [1] (setting [8]) was determined as 13.5 days; in assay [1] (setting [9]), 16.5 days; with melanotic melanoma B16 (setting [10]), 43.5 days; in the assay with melanotic melanoma B16 (setting [11]), 41 days; with melanotic melanoma B16 (setting [12]), 38 days. Further, the “T/C x 100 (%)” value is 123% in assay [1] (setting [8]); 150% in assay [1] (setting [9]); 182% with melanotic melanoma B16 (setting [10]); 171% in the assay with melanotic melanoma B16 (setting [11]); 158% in the assay on melanotic melanoma B16 (setting [12]).

As to `O=C1c2c(O)ccc(O)c2C(=O)c2c(NCCNCCO)ccc(NCCNCCO)c21` [Positive Control, 1,4-dihydroxy-5,8-bis--[ [2-(2-hydroxyethylamino)ethyl]amino]anthraquinone, dihydrochloride, reference compound], the “Median Survival” value is 17 days and 18 days and 16 days in assay [1] (setting [13]); 25.5 days and 14.5 days and 16.5 days and 21.5 days in assay [1] (setting [14]); 14.5 days in assay [1] (Dose 0.2 mg/kg intraperitoneally on days 1, 5 and 9); 19.5 days and 27 days and >30 days and 19 days and 26.5 days in assay [1] (setting [15]); 18 days in assay [1] (Dose 0.8 mg/kg intraperitoneally on days 1, 5 and 9); >30 days and 19.5 days in assay [1] (setting [16]). Further, the “Median Survival” value is greater than 30 days in assay [1] (Dose 3.2 mg/kg by injection); 28 days and 26 days and 33 days and 28.5 days in the assay with melanotic melanoma B16 (setting [17]); 36 days and 31.5 days and 39 days and 32 days and 42 days in the assay with melanotic melanoma B16 (setting [18]); 32 days in the assay with melanotic melanoma B16 (setting [19]); 36 days and >60 days and 58 days in the assay with melanotic melanoma B16 (setting [20]); 35 days in the assay with melanotic melanoma B16 (setting [5]). Besides, the “Median Survival” value with melanotic melanoma B16 (setting [21]) was >60 days and 38 days and 37 days. For the same compound, the “T/C x 100 (%)” value in assay [1] (setting [13]) was 170% and 171% and 145%; in assay [1] (setting [14]), 255% and 132% and 150% and 205% and 232%; in assay [1] (Dose 0.2 mg/kg intraperitoneally on days 1, 5 and 9, dihydrochloride, 0.2 mg/kg), 153% and 126%; in assay [1] (setting [15]), 205% and 169% and 270% and >273% and 173% and 252%; in assay [1] (Dose 0.8 mg/kg intraperitoneally on days 1, 5 and 9, dihydrochloride, 0.8 mg/kg) it was 189% and 156%; in assay [1] (setting [16]) it was >316% and >261% and >300% and >273% and >286% and 177%. For the same compound, the “T/C x 100 (%)” value in assay [1] (Dose 3.2 mg/kg by injection, dihydrochloride, 3.2 mg/kg) was >261% and >316%; in the assay on melanotic melanoma B16 (setting [17]), 137% and 161% and 133%; with melanotic melanoma B16 (setting [18]), 176% and 166% and 190% and 133% and 195%; in the assay with melanotic melanoma B16 (setting [19]) it was 158%; in the assay with melanotic melanoma B16 (setting [20]), 178% and >293% and >317% and >250% and 270%; in the assay with melanotic melanoma B16 (setting [5]), 173%. Also, the “T/C x 100 (%)” value with melanotic melanoma B16 (setting [21]) is >293% and >297% and 200% and >250% and 172%.

`COC(=O)C(=O)NCCNc1ccc(NCCNC(=O)C(=O)OC)c2c1C(=O)c1c(O)ccc(O)c1C2=O` [2,2[(9-10-Dihydro-5,8-dihydroxy-9,10-dioxo-1,4-anthracenediyl)bis(imino-2,1-ethanediylimino)]-bis[2-oxoacetic acid]dimethyl ester]: the “Median Survival” value in assay [1] (setting [22]) is 16 days; in assay [1] (setting [23]), 19.5 days; in assay [1] (setting [8]), 20.5 days; in assay [1] (setting [9]), 23 days; in the assay with melanotic melanoma B16 (setting [5]), 23.5 days; in the assay on melanotic melanoma B16 (setting [6]), 26.5 days. The “Median Survival” value was 31.5 days in the assay with melanotic melanoma B16 (setting [7]) and greater than 60 days in the assay with melanotic melanoma B16 (setting [11]). Besides, the “T/C x 100 (%)” value in assay [1] (setting [22]) amounted to 145%; in assay [1] (setting [23]) it was 177%; in assay [1] (setting [8]) it was 186%; in assay [1] (setting [9]) it was 209%; in the assay with melanotic melanoma B16 (setting [5]), 155%; in the assay on melanotic melanoma B16 (setting [6]), 129%. In addition, the results for the “T/C x 100 (%)” value in the assay with melanotic melanoma B16 (setting [7]) and with melanotic melanoma B16 (setting [11]) were 154% and greater than 293%, respectively.

Regarding `O=C1c2c(OC(=O)C(F)(F)F)ccc(OC(=O)C(F)(F)F)c2C(=O)c2c(N(CCN(CCOC(=O)C(F)(F)F)C(=O)C(F)(F)F)C(=O)C(F)(F)F)ccc(N(CCN(CCOC(=O)C(F)(F)F)C(=O)C(F)(F)F)C(=O)C(F)(F)F)c21` [N,N'-(5,8-Dihydroxy-l,4-anthraquinonylene)bis[2,2,2-trifluoro-N-[2,(2,2,2-trifluoro-N-2-hydroxyethyl-acetamido)ethyl]acetamide]tetrakis(trifluoroacetate) (tetraester)], the “Median Survival” value in assay [1] (setting [24]) amounted to 13.5 days; in assay [1] (setting [25]) it was 16 days; in assay [1] (setting [26]), 15 days; in assay [1] (setting [27]), 19.5 days; in assay [1] (setting [28]) it was 26.5 days; in the assay on melanotic melanoma B16 (setting [29]) it was 27 days. The “Median Survival” value in the assay on melanotic melanoma B16 (setting [19]) is 27 days; in the assay on melanotic melanoma B16 (setting [5]), 34 days; with melanotic melanoma B16 (setting [6]), greater than 52 days; in the assay with melanotic melanoma B16 (setting [7]) it was 42 days. The “T/C x 100 (%)” value in assay [1] (setting [24]) was determined as 117%; in assay [1] (setting [25]) it was 139%; in assay [1] (setting [26]) it was 130%; in assay [1] (setting [27]), 170%; in assay [1] (setting [28]), 230%; in the assay with melanotic melanoma B16 (setting [29]), 132%. In addition, the “T/C x 100 (%)” value is given as 132% with melanotic melanoma B16 (setting [19]), 166% with melanotic melanoma B16 (setting [5]), greater than 254% in the assay on melanotic melanoma B16 (setting [6]) and 205% in the assay on melanotic melanoma B16 (setting [7]).

`CN(C)CCCNC(=S)N(CCO)CCNc1ccc(NCCN(CCO)C(=S)NCCCN(C)C)c2c1C(=O)c1c(O)ccc(O)c1C2=O` [N,N"-[(9,10-Dihydro-5,8-dihydroxy-9,10-dioxo-1,4-anthracenediyl)bis(imino-2,1-ethanediyl)]bis[N'-[3-(dimethylamino)propyl]-N-(2-hydroxyethyl)]thiourea]: the “Median Survival” value stood at 13 days in assay [1] (setting [30]); 13.5 days in assay [1] (setting [31]); 19.5 days in assay [1] (setting [32]); 23 days in assay [1] (setting [9]); 27.5 days with melanotic melanoma B16 (setting [10]); 42 days in the assay on melanotic melanoma B16 (setting [12]). In addition, the “T/C x 100 (%)” value in assay [1] (setting [30]) turned out to be 124%; in assay [1] (setting [31]), 129%; in assay [1] (setting [32]), 186%; in assay [1] (setting [9]), 219%; with melanotic melanoma B16 (setting [10]) it was 146%; with melanotic melanoma B16 (setting [12]), 222%.

For the origin of these results see EP0182135A2, “Novel bis-(substituted amino) anthraquinones” (AMERICAN CYANAMID COMPANY, priority 1984, dated 1986).
